ChEMBL document CHEMBL4411291, “Synthesis and anti-tumor activity of imidazopyrazines as TAK1 inhibitors” (Eur J Med Chem, 2019)
Each block holds one molecule with its values, some of them ahead of it. Active and inactive are the calls of the source. No cut-off for these calls is given here.

Columns and labels:
[1] = target: T1, Mitogen-activated protein kinase kinase kinase 7 (Homo sapiens) (UniProt O43318); assay: Inhibition of TAK1 (unknown origin) at 0.1 uM by LanthaScreen Eu kinase binding assay relative to control
T1 sequence (whole entry): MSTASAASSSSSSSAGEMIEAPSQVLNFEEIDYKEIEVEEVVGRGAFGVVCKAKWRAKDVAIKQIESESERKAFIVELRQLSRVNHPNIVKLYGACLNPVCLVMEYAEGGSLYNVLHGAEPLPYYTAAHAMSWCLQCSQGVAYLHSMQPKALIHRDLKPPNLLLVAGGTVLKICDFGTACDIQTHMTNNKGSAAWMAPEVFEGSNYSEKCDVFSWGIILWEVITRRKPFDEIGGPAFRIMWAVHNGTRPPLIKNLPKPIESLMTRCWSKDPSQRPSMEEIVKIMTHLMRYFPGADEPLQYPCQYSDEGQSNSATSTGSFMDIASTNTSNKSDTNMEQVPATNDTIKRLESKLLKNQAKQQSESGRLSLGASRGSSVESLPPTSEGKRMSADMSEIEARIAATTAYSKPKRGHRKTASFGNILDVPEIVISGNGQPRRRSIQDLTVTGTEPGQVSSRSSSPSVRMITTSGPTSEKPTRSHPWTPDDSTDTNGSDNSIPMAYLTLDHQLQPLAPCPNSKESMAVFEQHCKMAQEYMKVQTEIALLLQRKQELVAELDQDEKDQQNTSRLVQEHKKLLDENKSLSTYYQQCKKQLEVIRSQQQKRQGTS

[2] = target: T1, Mitogen-activated protein kinase kinase kinase 7 (Homo sapiens); assay: Inhibition of TAK1 (unknown origin) at 1 uM by LanthaScreen Eu kinase binding assay relative to control
[3] = target: CDK2/Cyclin A2 (Homo sapiens) (UniProt P24941+P20248); assay: Inhibition of CDK2/cyclin A (unknown origin) at 1 uM by LanthaScreen Eu kinase binding assay relative to control; assay type: protein-complex assay
[4] = target: T1, Mitogen-activated protein kinase kinase kinase 7 (Homo sapiens); assay: Inhibition of TAK1 phosphorylation in human SW620 cells after 24 hrs by immunoblotting analysis; assay type: cell-based
[5] = target: High affinity nerve growth factor receptor (Homo sapiens) (UniProt P04629); assay: Inhibition of NTRK1 (unknown origin) at 1 uM by LanthaScreen Eu kinase binding assay relative to control
[6] = target: TAK1/TAB1 (Homo sapiens, UniProt O43318); assay: Inhibition of N-terminal His-tagged human TAK1 (1 to 303 amino acids)/human TAB1 (437 to 504 amino acids) expressed in baculovirus expression system using fluorescence-labeled substrate by off-chip mobility shift assay
[7] = target: Cytochrome P450 2C19 (Homo sapiens, UniProt P33261); assay: Inhibition of CYP2C19 in liver microsomes (unknown origin) using (+/-) N-3-benzylnirvanol as […] preincubated for 5 mins followed by NADPH addition and measured after 15 mins by LC-MS/MS analysis; assay type: ADME
[8] = AUC (0 to 7 hrs) in ICR mouse at 8.2 mg/kg, po administered as single dose or 3 mg/kg, iv by LC-MS/MS analysis; assay type: ADME, organism-based; settings: in vivo
[9] = test system: LoVo; assay: Growth inhibition of human LoVo cells after 96 hrs by SRB assay; assay type: functional, cell-based
[10] = target: Epidermal growth factor receptor (Homo sapiens) (UniProt P00533); assay: Inhibition of EGFR (unknown origin) at 1 uM by LanthaScreen Eu kinase binding assay relative to control
[11] = target: Platelet-derived growth factor receptor alpha (Homo sapiens) (UniProt P16234); assay: Inhibition of PDGFRalpha (unknown origin) at 1 uM by LanthaScreen Eu kinase binding assay relative to control
[12] = test system: SW-620; assay: Growth inhibition of human SW620 cells after 96 hrs by SRB assay; assay type: functional, cell-based; settings: SW-620, 96 h
[13] = target: Cytochrome P450 3A4 (Homo sapiens, UniProt P08684); assay: Inhibition of CYP3A4 in liver microsomes (unknown origin) using ketoconazole as […] preincubated for 5 mins followed by NADPH addition and measured after 15 mins by LC-MS/MS analysis; assay type: ADME
[14] = target: Cytochrome P450 2C9 (Homo sapiens, UniProt P11712); assay: Inhibition of CYP2C9 in liver microsomes (unknown origin) using sulfaphenazole as […] preincubated for 5 mins followed by NADPH addition and measured after 15 mins by LC-MS/MS analysis; assay type: ADME
[15] = target: Tyrosine-protein kinase BTK (Homo sapiens) (UniProt Q06187); assay: Inhibition of BTK (unknown origin) at 1 uM by LanthaScreen Eu kinase binding assay relative to control
[16] = target: Serine/threonine-protein kinase B-raf (Homo sapiens) (UniProt P15056); assay: Inhibition of BRAF (unknown origin) at 1 uM by LanthaScreen Eu kinase binding assay relative to control
[17] = Stability in human plasma assessed as parent compound remaining after 6 hrs by LC-MS/MS analysis; assay type: ADME, cell-free; settings: read-out: Stability
[18] = target: Glycogen synthase kinase-3 beta (Homo sapiens) (UniProt P49841); assay: Inhibition of GSK3b (unknown origin) at 1 uM by LanthaScreen Eu kinase binding assay relative to control
[19] = target: Voltage-gated inwardly rectifying potassium channel KCNH2 (Homo sapiens, UniProt Q12809); assay: Binding affinity to human ERG by fluorescence polarization assay
[20] = target: Ribosomal protein S6 kinase alpha-1 (Homo sapiens) (UniProt Q15418); assay: Inhibition of RPS6KA1 (unknown origin) at 1 uM by LanthaScreen Eu kinase binding assay relative to control
[21] = target: Cytochrome P450 2B6 (Homo sapiens, UniProt P20813); assay: Inhibition of CYP2B6 in liver microsomes (unknown origin) using clopidogrel as […] preincubated for 5 mins followed by NADPH addition and measured after 15 mins by LC-MS/MS analysis; assay type: ADME
[22] = test system: SW-620; assay: Induction of apoptosis in human SW620 cells assessed as Caspase-3 activity at 10 uM after 24 hrs by Caspase-3/7 reagent-based fluorescence assay; assay type: functional, cell-based
[23] = Toxicity in CAnN.Cg-Foxnlnu/Crljbgi nude mouse xenografted with human SW620 cells assessed as weight loss at 100 mg/kg, po dosed daily for 14 consecutive days; assay type: organism-based; settings: in vivo
[24] = Oral bioavailability in ICR mouse at 8.2 mg/kg administered as single dose by LC-MS/MS analysis; assay type: ADME, organism-based; settings: in vivo
[25] = target: Cytochrome P450 1A2 (Homo sapiens, UniProt P05177); assay: Inhibition of CYP1A2 in liver microsomes (unknown origin) using alpha-naphthoflavone as […] preincubated for 5 mins followed by NADPH addition and measured after 15 mins by LC-MS/MS analysis; assay type: ADME
[26] = target: Mitogen-activated protein kinase 14 (Homo sapiens) (UniProt Q16539); assay: Inhibition of […] (unknown origin) at 1 uM by LanthaScreen Eu kinase binding assay relative to control
[27] = test system: SW-620; assay: Antitumor activity against human SW620 cells xenografted in CAnN.Cg-Foxnlnu/Crljbgi nude mouse assessed as tumor growth inhibition at 100 mg/kg, po dosed daily for 14 consecutive days; assay type: functional, organism-based
[28] = Stability in human liver microsomes assessed as parent compound remaining after 60 mins in presence of NADPH by HPLC analysis; assay type: ADME, Microsome; settings: read-out: Stability
[29] = Toxicity in CAnN.Cg-Foxnlnu/Crljbgi nude mouse xenografted with human SW620 cells at 100 mg/kg, po dosed daily for 14 consecutive days; assay type: organism-based; settings: in vivo
[30] = Half life in ICR mouse at 8.2 mg/kg, po administered as single dose or 3 mg/kg, iv by LC-MS/MS analysis; assay type: ADME, organism-based; settings: in vivo
[31] = test system: SK-CO-1; assay: Growth inhibition of human SKCO1 cells after 96 hrs by SRB assay; assay type: functional, cell-based; settings: SK-CO-1, 96 h
[32] = target: Inhibitor of nuclear factor kappa-B kinase subunit beta (Homo sapiens) (UniProt O14920); assay: Inhibition of IKKbeta (unknown origin) at 1 uM by LanthaScreen Eu kinase binding assay relative to control
[33] = Stability in mouse liver microsomes assessed as parent compound remaining after 60 mins in presence of NADPH by HPLC analysis; assay type: ADME, Microsome; settings: read-out: Stability
[34] = Cmax in ICR mouse at 8.2 mg/kg, po administered as single dose or 3 mg/kg, iv by LC-MS/MS analysis; assay type: ADME, organism-based; settings: in vivo
[35] = Stability in mouse plasma assessed as parent compound remaining after 6 hrs by LC-MS/MS analysis; assay type: ADME, cell-free; settings: read-out: Stability
[36] = test system: SW-620; assay: Antitumor activity against human SW620 cells xenografted in CAnN.Cg-Foxnlnu/Crljbgi nude mouse assessed as tumor growth inhibition at 30 mg/kg, po dosed daily for 14 consecutive days; assay type: functional, organism-based
[37] = Toxicity in CAnN.Cg-Foxnlnu/Crljbgi nude mouse xenografted with human SW620 cells assessed as weight loss at 30 mg/kg, po dosed daily for 14 consecutive days; assay type: organism-based; settings: in vivo

Chain of Platelet-derived growth factor receptor alpha (Homo sapiens) (P16234 whole entry): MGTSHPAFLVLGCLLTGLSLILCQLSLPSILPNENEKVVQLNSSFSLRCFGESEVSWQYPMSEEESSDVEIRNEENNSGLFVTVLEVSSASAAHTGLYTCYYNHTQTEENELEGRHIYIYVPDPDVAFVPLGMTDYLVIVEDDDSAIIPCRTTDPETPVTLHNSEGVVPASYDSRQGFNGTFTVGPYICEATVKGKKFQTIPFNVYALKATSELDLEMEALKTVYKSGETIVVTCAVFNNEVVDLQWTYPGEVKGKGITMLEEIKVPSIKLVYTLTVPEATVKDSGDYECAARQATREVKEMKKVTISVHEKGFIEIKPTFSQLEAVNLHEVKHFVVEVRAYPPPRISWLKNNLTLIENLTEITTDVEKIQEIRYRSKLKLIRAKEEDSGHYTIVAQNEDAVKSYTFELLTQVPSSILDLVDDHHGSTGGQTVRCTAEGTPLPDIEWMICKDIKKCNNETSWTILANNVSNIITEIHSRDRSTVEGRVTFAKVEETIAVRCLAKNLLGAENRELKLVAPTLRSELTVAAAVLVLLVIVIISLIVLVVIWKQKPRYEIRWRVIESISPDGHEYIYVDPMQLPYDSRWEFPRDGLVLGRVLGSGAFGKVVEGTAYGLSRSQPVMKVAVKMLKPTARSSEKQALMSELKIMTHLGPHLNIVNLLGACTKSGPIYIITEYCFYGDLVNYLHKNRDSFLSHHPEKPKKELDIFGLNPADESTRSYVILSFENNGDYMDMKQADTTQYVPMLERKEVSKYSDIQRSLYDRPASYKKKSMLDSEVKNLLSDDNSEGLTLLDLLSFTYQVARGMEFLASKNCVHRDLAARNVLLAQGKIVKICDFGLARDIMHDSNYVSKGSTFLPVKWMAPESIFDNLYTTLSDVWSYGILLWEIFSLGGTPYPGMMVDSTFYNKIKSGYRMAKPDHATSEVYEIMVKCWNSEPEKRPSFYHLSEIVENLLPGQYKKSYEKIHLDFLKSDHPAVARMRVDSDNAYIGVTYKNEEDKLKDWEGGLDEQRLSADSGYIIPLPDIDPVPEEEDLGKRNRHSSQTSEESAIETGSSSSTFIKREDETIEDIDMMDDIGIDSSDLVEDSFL
Chain of Mitogen-activated protein kinase 14 (Homo sapiens) (Q16539 whole entry): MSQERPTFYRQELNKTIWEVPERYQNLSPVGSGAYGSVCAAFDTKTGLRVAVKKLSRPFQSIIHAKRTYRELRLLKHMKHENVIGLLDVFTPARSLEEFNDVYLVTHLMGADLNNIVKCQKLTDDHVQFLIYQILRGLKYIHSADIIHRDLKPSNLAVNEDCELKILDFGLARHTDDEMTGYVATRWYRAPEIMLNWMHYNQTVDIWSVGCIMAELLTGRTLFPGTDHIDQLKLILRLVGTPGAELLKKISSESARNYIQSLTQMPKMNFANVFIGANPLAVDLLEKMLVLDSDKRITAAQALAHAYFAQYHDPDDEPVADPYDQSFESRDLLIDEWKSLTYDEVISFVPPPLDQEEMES
Chain of Cytochrome P450 1A2 (P05177 whole entry): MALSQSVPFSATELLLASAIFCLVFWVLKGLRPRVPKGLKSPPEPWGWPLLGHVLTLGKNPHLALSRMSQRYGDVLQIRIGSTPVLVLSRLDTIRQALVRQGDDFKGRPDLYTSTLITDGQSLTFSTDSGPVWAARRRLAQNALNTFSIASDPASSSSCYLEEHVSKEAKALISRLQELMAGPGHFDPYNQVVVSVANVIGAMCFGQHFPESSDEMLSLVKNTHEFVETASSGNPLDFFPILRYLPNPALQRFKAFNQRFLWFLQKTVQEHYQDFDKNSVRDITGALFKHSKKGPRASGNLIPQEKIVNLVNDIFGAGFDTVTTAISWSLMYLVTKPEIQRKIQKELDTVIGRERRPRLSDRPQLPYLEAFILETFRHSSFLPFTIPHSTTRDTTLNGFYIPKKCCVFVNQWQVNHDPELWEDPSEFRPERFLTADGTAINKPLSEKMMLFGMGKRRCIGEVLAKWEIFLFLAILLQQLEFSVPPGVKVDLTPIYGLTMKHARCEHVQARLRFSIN
Chain of Cytochrome P450 2C19 (P33261 whole entry): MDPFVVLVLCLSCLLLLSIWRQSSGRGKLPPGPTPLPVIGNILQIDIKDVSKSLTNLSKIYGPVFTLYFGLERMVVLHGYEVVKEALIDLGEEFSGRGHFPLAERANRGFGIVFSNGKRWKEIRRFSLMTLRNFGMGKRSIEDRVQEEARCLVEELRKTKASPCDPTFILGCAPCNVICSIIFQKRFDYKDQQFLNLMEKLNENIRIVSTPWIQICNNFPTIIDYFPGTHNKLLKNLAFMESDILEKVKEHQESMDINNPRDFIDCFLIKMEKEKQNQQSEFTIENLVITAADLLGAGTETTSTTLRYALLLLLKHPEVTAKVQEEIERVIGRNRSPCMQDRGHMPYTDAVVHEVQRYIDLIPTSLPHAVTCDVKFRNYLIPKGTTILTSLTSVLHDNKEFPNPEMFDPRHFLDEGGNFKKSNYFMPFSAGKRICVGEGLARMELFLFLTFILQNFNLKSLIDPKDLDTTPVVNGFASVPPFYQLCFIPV
Chain of TAK1/TAB1 (Q15750 whole entry, one chain of several, the tested form may be a part): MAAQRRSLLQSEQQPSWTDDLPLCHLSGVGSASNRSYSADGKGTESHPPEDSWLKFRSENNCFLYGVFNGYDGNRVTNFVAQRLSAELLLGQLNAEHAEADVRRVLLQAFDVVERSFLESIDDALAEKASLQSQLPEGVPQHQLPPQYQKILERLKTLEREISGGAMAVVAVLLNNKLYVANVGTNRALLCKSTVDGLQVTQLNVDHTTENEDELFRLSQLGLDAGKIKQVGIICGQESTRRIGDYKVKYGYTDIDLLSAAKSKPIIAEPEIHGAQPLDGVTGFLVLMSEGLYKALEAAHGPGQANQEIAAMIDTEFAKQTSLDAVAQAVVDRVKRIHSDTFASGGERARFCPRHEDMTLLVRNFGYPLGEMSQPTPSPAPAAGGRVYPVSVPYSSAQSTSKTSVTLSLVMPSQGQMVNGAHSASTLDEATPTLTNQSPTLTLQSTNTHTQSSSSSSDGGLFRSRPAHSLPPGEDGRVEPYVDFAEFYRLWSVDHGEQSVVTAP
Chain of High affinity nerve growth factor receptor (Homo sapiens) (P04629 33-796 limits assumed): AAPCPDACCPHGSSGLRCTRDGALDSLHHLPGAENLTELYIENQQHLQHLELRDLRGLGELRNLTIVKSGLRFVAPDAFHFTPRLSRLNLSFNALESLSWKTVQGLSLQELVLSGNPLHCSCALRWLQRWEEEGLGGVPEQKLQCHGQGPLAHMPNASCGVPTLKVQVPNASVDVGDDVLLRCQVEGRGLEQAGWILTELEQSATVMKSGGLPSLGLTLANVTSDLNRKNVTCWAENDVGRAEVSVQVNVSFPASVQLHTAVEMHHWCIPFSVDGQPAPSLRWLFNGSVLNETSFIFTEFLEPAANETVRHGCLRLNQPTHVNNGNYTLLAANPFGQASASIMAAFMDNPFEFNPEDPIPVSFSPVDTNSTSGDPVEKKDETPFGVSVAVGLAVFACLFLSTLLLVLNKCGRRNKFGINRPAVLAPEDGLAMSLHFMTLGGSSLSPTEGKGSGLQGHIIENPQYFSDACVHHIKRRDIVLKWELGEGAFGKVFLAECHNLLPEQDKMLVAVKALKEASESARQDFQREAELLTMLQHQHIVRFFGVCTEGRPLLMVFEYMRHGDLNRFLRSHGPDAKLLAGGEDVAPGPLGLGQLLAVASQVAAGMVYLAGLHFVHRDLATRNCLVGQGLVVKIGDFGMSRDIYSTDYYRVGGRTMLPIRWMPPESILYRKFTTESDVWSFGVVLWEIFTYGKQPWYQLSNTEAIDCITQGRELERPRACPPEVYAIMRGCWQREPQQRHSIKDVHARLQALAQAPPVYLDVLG
Chain of Ribosomal protein S6 kinase alpha-1 (Homo sapiens) (Q15418 whole entry): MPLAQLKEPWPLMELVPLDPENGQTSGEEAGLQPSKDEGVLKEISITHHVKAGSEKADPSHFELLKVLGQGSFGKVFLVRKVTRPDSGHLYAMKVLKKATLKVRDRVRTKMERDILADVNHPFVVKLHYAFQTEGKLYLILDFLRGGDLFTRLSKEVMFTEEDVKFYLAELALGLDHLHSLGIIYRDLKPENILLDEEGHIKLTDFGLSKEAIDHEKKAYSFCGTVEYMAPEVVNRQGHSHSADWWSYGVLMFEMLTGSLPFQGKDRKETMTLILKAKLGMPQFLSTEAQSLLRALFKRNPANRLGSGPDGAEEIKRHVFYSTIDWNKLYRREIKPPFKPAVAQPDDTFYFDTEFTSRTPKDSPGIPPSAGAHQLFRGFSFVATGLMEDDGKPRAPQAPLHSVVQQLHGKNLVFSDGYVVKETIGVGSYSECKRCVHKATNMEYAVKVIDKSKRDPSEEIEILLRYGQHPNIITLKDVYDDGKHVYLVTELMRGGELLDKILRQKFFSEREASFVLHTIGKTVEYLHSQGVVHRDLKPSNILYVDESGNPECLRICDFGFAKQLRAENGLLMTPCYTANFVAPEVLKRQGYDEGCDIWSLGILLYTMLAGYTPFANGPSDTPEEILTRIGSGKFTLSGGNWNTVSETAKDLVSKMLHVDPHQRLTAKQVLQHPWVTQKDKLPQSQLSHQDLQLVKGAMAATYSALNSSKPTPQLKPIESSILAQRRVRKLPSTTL
Chain of Cytochrome P450 3A4 (P08684 whole entry): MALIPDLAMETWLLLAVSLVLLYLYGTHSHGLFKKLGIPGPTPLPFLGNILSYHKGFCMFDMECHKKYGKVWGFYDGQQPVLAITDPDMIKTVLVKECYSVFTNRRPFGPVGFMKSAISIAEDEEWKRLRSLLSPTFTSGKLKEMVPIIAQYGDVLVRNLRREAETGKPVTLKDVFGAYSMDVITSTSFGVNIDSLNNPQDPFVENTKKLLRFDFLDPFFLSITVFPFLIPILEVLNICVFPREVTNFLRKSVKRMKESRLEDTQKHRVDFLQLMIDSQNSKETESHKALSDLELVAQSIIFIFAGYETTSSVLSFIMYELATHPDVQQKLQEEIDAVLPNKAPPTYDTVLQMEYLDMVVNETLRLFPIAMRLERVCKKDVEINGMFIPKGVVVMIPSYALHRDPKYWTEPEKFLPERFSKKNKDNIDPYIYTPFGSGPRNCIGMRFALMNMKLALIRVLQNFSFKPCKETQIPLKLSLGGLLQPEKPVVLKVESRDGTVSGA

Compound: Cc1cc(NC(=O)Nc2cc(C(C)(C)C)nn2-c2cccc(C#N)c2)ccc1Oc1cnc(NC2CC2)c2nccn12
inhibition [1]: 0%
inhibition [2]: 76%

Compound: Cc1cc(NC(=O)Nc2cc(C(C)(C)C)nn2-c2ccccc2)ccc1-c1cnc(NC2CC2)c2nccn12
inhibition [3]: 1%
inhibition [4]: Dose-dependent effect
inhibition [5]: 82%
IC50 [6]: 37 nM
IC50 [7]: > 25000 nM
AUC(0-t) [8]: 3140 ng·h/mL
IC50 [9]: 391 nM
inhibition [10]: 45%
inhibition [11]: 88%
IC50 [12]: 330 nM
IC50 [13]: 3520 nM
IC50 [14]: 3500 nM
inhibition [15]: 0%
inhibition [16]: 37%
remaining at 6 h [17]: 90%
inhibition [18]: 51%
IC50 [19]: > 50000 nM
inhibition [20]: 4%
IC50 [21]: > 25000 nM
Activity [22]: Active
Activity [23]: Non-Toxic
bioavailability [24]: 25.2%
inhibition [1]: 56%
IC50 [25]: > 25000 nM
inhibition [26]: 82%
Activity [27]: Active
remaining at 1 h [28]: 37%
Activity [29]: Non-Toxic
inhibition [2]: 98%
half-life [30]: 1.6 h
IC50 [31]: 274 nM
inhibition [32]: 0%
remaining at 1 h [33]: 44%
Cmax [34]: 1930 ng/mL
remaining at 6 h [35]: 88%

Compound: Cc1ccc(-n2nc(C(C)(C)C)cc2NC(=O)Nc2ccc(-c3cnc(NC4CC4)c4nccn34)c(C)c2)cc1
inhibition [1]: 7%
inhibition [2]: 91%

Compound: Cc1cc(NC(=O)Nc2cc(C(C)(C)C)nn2-c2ccccc2)ccc1Oc1cnc(NC2CC2)c2nccn12
inhibition [1]: 20%
inhibition [2]: 90%

Compound: Cc1cc(NC(=O)Nc2cc(C(C)(C)C)nn2-c2cccc(Cl)c2)ccc1-c1cnc(NC2CC2)c2ncnn12
inhibition [1]: 18%
inhibition [2]: 74%

Compound: Cc1cc(NC(=O)Nc2cc(C(C)(C)C)nn2-c2cccc([N+](=O)[O-])c2)ccc1-c1cnc(NC2CC2)c2ncnn12
inhibition [1]: 26%
inhibition [2]: 90%

Now from value to molecule, other results behind:

inhibition [1]: 34%
inhibition [2]: 94%
Compound: Cc1cc(NC(=O)Nc2cc(C(C)(C)C)nn2-c2cccc(F)c2)ccc1-c1cnc(NC2CC2)c2nccn12

inhibition [1]: 0%
inhibition [2]: 69%
Compound: Cc1cc(NC(=O)Nc2cc(C(C)(C)C)nn2-c2ccc(F)cc2)ccc1-c1cnc(NC2CC2)c2nccn12

IC50 [9]: 75 nM
IC50 [12]: 38 nM
inhibition [1]: 96%
inhibition [2]: 98%
IC50 [31]: 61 nM
Compound: CCc1cc(Nc2ncc(F)c(-c3cnc4cccnn34)n2)cc(OCCN2CCC(O)CC2)c1
TGI [36]: Active
Activity [37]: Toxic
